Experimental data: patent publication US20240075087A1, “COMPOSITIONS AND METHODS COMPRISING HEMP EXTRACT FOR THE TREATMENT OF ANIMALS IN NEED” (Portland Technology Holdings LLC, priority 2021, published 2024)
≈ marks a conversion by molar mass, not a printed value.

What was measured:
[1] = test system: HMPOS osteosarcoma cell line; experiment: 48 hours MTT proliferation assay, HMPOS; assay type: cell-based, canine; conditions: pure compound
Method: (§1) 3-(4,5-Dimethylthaizol-2-yl)-2,5-diphenyltetrazolium bromide (MTT) assays are performed on all previously described cell lines; CMT12, HMPOS, D17, Abrams and 17-71. […] Cells are treated with vehicle (methanol or ethanol/DMSO mix) or various concentrations of the CBD, CBDA or CBD-rich hemp extract ranging from 0.42 to 20 μg/mL in serial dilution for 48 hours. MTT assays are performed after 48 hours of treatment by adding 20 μL of MTT dye ([…] filtered 5 mg/mL in phosphate-buffered saline [PBS]) to each well and incubating at 37° C. in 5% CO2 for 2 hours. The media is then aspirated, washed once with 200 μL of PBS and then solubilized in 200 μL of ethanol. Immediate analysis of the optical density of each well is performed using a spectrophotometric plate reader (Epoch; Biotek, Winooski, Vermont) at a wavelength of 570 nm as previously described (e.g., Vega-Avila E and Pugsley M K, An overview of colorimetric assay methods used to assess survival or proliferation of mammalian cells, Proc West Pharmacol Soc., 2011, 54, pp. 10-14 which is incorporated herein by reference in its entirety). The percent proliferating cells of control for each concentration is averaged and reported as a mean+/—SD from triplicate wells over three experiments.
(§2) For CBD, CBDA and hemp extract concentrations needed to obtain a 50% inhibition of cell proliferation (IC50) are then calculated across experiments by Probit analysis using XLFit5 software (IDBS, Guildford, United Kingdom) for reporting the results for each cell line.

[2] = test system: Abrams osteosarcoma cell line; experiment: 48 hours MTT proliferation assay, Abrams; assay type: cell-based, canine; conditions: pure compound
Method: as §1, §2

canine P-glycoprotein = target: T1, canine P-glycoprotein (Canis lupus familiaris, UniProt C0KKU9); experiment: P-glycoprotein competitive transport assay (rhodamine 123, MDCK PGP cells); assay type: in vitro ADME; conditions: highest concentration tested, 1,000 ng/mL
T1 construct: host or cells: MDCK PGP cells (canine P-gp expressing cell line)
Method: In this second study, a competitive P-gp substrate assay incorporating a canine P-gp expressing cell line is used to assess each test compound's ability to compete with the P-gp substrate rhodamine 123. Each concentration is tested on 3 separate days with same-day duplicates. Positive controls and negative controls are included in each run.
Results for each concentration of test compound evaluated are reported as non-P-gp substrate, weak P-gp substrate, moderate P-gp substrate, or strong P-gp substrate. The concentrations for CBD and CBDA are as follows: 10 ng/mL, 100 ng/mL and 1,000 ng/mL.
A competitive P-gp substrate assay using a canine P-gp expressing cell line was used to assess CBDA and/or CBD as a substrate for canine P-glycoprotein.

[3] = Single-dose oral pharmacokinetics of CBD in healthy dogs; assay type: in vivo; conditions: dog, serum
Method: The single-dose oral pharmacokinetics of CBD and an assessment of safety and adverse effects during 12-week administration using a hemp-based product in healthy dogs and cats were determined in this study. […] More details about this study can be found in “Deabold, K. A.; Schwark, W. S.; Wolf, L.; Wakshlag, J. J., Single Dose Pharmacokinetics and Preliminary Safety Assessment with Use of CBD-Rich Hemp Nutraceutical in Healthy Dogs and Cats, Animals 2019, 9, 832, DOI 10.3390/ani9100832,” which is incorporated herein by reference in its entirety.

CYP3A12 = CYP3A12 (Canis lupus familiaris, UniProt P24463); experiment: CYP3A12 activity inhibition in pooled dog liver microsomes
Method: Inhibition potency (i.e. IC50) is determined by measuring the decrement in metabolism of P450-specific marker activities in pooled dog liver microsomes with increasing concentrations of CBD, CBDA, and hemp extracts. P450-specific markers include bupropion 6-hydroxylation (CYP2B11), dextromethorphan 0-demethylation (CYP2D15) and omeprazole sulfoxidation (CYP3A12). IC50 values are determined both with and without preincubation of liver microsomes with potential inhibitor to evaluate whether there is mechanism-based time-dependent inhibition.
The following parameters are assessed: (1) the rates of CBD and CBDA metabolism by dog liver microsomes and by 11 recombinant canine P450 enzymes; (2) the predicted percent contribution of each P450 to total CBD and CBDA metabolism in dog liver; and (3) IC50 values for inhibition of CYP2B11, CYP2D15 and CYP3A12 metabolism in dog liver, both with and without inhibitor preincubation.
FIGS. 13-15 show activity assays for CYP3A12 (FIGS. 13A and 13B), CYP2B11 (FIGS. 14A and 14B), and CYP2D15 (FIGS. 15A and 15B). Assays using either no preincubation (FIGS. 13A, 14A, and 15A) or 20 minutes of preincubation (FIGS. 13B, 14B, and 15B) were performed.

[4] = test system: D17 osteosarcoma cell line; experiment: 48 hours MTT proliferation assay, D17; assay type: cell-based, canine; conditions: pure compound
Method: as §1, §2

D17 cells = experiment: Trypan blue exclusion assay, D17; assay type: cell-based, canine; conditions: 48 hours, vehicle control 5±1%
Method: The trypan blue exclusion assay is performed on canine primary dermal fibroblasts (CDF) because of the slow rate of proliferation and low metabolic activity of these normal canine cells, precluding productive MTT assays. The effects of CBD treatments are compared with the results obtained on the 17-71, CMT12 and D17 cell lines for comparative purposes. For the CDF cells, applied cell extracellular matrix (ABM) is applied overnight to 24-well tissue culture-treated plates (Applied Biological Materials [ABM], Richmond, BC, Canada). For all cell lines, cells are plated at a density of 5×10^3 cells per well and incubated until 60% confluent before treatment with methanol vehicle control, 3.75, 7.5, and 15 μg/mL of CBD to cells for 48 hours. Cells are then trypsinized, collected and centrifuged at 1900 g for 10 minutes. With the exception of the 17-71 cell line, cells are detached with Accumax (Invitrogen, Carlsbad, California). The cell pellet is resuspended in 0.1% trypan blue (Sigma Aldrich, St Louis, Missouri) in PBS solution, loaded on a Cell Countess disposable cell counting slide with automatic counting of all positively stained cells in the Countess II Cell Counter under identical settings for each cell line (Invitrogen; ThermoFisher Scientific, Carlsbad, California) using the same parameters for each cell line. All treatments are performed in triplicate and the percent of viable cells are averaged.

[5] = Canis lupus familiaris, read-out: IC50 (Probit)

Sequence of CYP3A12 (P24463 whole entry): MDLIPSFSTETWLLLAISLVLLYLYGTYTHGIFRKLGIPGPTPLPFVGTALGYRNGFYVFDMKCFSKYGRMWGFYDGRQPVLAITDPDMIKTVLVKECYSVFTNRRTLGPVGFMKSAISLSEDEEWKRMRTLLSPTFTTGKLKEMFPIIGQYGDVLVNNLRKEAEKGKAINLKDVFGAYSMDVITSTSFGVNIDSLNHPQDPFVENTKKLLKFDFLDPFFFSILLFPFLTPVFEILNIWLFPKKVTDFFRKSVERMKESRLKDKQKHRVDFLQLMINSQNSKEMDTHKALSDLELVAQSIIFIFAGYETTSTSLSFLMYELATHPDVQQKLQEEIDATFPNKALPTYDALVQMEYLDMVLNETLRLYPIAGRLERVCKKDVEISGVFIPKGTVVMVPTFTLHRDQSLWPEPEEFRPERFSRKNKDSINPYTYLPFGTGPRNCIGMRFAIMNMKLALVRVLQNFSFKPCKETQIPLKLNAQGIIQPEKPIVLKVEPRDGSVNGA
T1 sequence (C0KKU9 1-1281): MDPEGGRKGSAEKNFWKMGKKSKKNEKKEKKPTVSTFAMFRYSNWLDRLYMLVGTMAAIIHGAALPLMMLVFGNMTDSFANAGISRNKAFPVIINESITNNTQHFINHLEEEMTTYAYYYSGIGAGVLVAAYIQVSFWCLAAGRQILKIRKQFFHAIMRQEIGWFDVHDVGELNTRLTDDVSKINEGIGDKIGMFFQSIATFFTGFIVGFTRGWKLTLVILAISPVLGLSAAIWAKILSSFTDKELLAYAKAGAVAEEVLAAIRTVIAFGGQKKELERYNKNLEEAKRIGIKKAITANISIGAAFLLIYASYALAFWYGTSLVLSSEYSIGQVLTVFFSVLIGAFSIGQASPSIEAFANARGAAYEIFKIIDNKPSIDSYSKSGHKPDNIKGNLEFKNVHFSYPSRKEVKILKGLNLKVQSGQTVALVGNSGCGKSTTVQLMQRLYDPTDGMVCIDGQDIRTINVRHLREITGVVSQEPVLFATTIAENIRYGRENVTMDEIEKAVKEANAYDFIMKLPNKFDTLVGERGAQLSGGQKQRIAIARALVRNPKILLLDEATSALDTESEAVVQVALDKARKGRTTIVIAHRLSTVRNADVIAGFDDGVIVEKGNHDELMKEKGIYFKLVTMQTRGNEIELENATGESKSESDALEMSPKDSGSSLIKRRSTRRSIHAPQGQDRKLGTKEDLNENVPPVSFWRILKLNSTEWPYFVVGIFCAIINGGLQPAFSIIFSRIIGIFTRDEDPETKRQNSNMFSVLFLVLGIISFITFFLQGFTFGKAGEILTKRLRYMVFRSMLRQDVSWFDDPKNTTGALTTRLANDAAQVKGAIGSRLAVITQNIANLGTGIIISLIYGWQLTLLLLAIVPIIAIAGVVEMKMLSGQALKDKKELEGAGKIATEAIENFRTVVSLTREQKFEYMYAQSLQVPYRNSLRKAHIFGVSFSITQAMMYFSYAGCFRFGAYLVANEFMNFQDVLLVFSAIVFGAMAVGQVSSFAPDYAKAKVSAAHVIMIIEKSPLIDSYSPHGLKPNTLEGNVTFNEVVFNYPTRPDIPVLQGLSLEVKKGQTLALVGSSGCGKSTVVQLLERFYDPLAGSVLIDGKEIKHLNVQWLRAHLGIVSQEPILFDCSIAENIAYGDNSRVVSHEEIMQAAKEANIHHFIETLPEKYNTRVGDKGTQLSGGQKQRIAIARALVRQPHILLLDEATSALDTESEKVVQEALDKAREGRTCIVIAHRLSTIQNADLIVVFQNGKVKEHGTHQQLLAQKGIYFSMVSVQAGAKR

C=C(C)[C@@H]1CCC(C)=C[C@H]1c1c(O)cc(CCCCC)cc1O [CBD, cannabidiol]
IC50 [1, 5]: 3.6 µg/mL (≈ 11.4 µM)
concentrations that significantly diminished proliferation vs vehicle control ([1]; P<0.05): ≥ 5 µg/mL
IC50 [2, 5]: 4.1 µg/mL (≈ 13 µM)
concentrations that significantly diminished proliferation vs vehicle control ([2]; P<0.05): ≥ 5 µg/mL
P-gp substrate classification (canine P-glycoprotein): not a substrate for canine PGP
Cmax ([3]; single oral dose 2 mg/kg total CBD/CBDA (1 mg/kg CBD and 1 mg/kg CBDA), read-out: mean maximum CBD concentration (Cmax)): 301 ng/mL
AUC ([3]; single oral dose 2 mg/kg total CBD/CBDA, read-out: area under the curve (AUC)): 1300 ng·h/mL
Tmax ([3]; single oral dose 2 mg/kg total CBD/CBDA, read-out: time to maximal concentration (Tmax)): 1.4 h
IC50 (CYP3A12): < 1 µM
time-dependent inhibition (TDI) (CYP3A12; CYP3A12, no preincubation vs 20 min preincubation, 10 μM): showed time-dependent inhibition (TDI)
IC50 [4, 5]: 4.1 µg/mL (≈ 13 µM)
concentrations that significantly diminished proliferation vs vehicle control ([4]; P<0.05): ≥ 5 µg/mL
percent trypan blue positive cells (D17 cells; 3.75 μg/mL CBD): 4±2%
percent trypan blue positive cells (D17 cells; 7.5 μg/mL CBD): 5±2%
percent trypan blue positive cells (D17 cells; 15 μg/mL CBD): 35±4%
